Test results: ChEMBL document CHEMBL1201862, “PubChem BioAssay data set” (2004)
Activity calls are given as the source filed them.

Columns and labels:
[1] = DRD fibroblast viability loss – cell-based, non-viral oncogenic, luminescence, dose response (AID 1934); format: functional; settings: Homo sapiens
[2] = test system: BJ; test: BJ-TERT-LT-ST fibroblast viability loss – cell-based, RAS-independent, luminescence, dose response (AID 1935); format: functional; settings: Homo sapiens;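 also: BJ fibroblasts immortalized with TERT plus LT and ST oncogenes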
[3] = test system: BJ; test: cells; format: functional, cell-based; settings: Homo sapiens
[4] = test system: BJ; test: BJ-TERT fibroblast viability loss – cell-based, RAS-independent, luminescence, dose response (AID 1933); format: functional; settings: Homo sapiens
[5] = biological target: T1, Microphthalmia-associated transcription factor (Homo sapiens, UniProt O75030); test: reducers of TRPM1 reporter luminescence, concentration series – cell-based, SK-MEL-5, cherry-picked, set 3, MITF inhibitor project, dose response (AID 493073); format: functional;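 also: SK-MEL-5 melanoma cells with luciferase driven by the MITF target TRPM1 promoter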
T1 sequence (O75030 whole entry): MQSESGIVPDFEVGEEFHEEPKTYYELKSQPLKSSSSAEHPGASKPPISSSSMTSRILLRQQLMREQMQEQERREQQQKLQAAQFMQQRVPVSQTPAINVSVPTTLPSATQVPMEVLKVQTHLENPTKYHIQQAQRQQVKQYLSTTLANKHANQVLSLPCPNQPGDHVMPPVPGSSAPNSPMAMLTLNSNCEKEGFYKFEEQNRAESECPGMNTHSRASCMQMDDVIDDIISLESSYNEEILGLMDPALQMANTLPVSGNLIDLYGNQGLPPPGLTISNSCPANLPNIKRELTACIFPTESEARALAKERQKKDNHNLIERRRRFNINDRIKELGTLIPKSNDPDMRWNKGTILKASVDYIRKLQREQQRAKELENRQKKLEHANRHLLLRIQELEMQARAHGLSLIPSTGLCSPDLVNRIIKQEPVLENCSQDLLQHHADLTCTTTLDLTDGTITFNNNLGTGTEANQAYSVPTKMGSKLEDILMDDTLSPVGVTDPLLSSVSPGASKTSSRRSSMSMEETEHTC

[6] = test system: A-375; test: MITF: Counter assay: A375 proliferation Measured in Cell-Based System Using Plate Reader - 2084-03_Inhibitor_Dose_DryPowder_Activity. [Related pubchem assays (depositor defined):AID488944]; format: functional; settings: Homo sapiens
[7] = biological target: T2, Protein RecA (Mycobacterium tuberculosis, UniProt P9WHJ3); test: Fluorescence Cell-Free Homogeneous Dose Retest to Identify Inhibitors of RecA-Intein Splicing Activity. [Related pubchem assays (depositor defined):AID2097, AID2223, AID489010, AID492950]; format: functional
T2 sequence (P9WHJ3 whole entry): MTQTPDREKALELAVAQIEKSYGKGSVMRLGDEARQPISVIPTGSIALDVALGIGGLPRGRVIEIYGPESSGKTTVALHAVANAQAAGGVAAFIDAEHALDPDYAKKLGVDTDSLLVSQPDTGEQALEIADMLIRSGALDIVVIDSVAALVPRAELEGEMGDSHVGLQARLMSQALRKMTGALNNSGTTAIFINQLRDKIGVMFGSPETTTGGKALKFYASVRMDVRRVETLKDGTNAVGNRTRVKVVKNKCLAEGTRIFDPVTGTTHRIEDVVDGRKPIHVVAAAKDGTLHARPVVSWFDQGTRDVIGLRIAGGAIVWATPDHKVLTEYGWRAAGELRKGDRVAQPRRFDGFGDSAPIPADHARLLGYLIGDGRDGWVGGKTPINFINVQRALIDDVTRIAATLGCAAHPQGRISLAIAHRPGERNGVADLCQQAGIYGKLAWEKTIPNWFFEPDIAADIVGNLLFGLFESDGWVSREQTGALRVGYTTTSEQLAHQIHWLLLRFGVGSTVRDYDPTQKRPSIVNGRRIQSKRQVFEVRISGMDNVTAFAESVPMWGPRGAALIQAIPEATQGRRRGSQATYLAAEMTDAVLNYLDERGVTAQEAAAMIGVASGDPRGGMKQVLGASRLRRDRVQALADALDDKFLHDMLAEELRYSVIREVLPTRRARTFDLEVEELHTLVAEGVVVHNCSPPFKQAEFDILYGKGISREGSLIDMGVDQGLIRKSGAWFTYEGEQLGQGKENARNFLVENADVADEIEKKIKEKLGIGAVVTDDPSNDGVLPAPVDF

[8] = biological target: T3, Replicative DNA helicase DnaB (Mycobacterium tuberculosis, UniProt P9WMR3); test: DnaB intein splicing inhibitors, dose response, biochemical, cell-free fluorescence (AID 449749); format: functional
T3 sequence (P9WMR3 whole entry): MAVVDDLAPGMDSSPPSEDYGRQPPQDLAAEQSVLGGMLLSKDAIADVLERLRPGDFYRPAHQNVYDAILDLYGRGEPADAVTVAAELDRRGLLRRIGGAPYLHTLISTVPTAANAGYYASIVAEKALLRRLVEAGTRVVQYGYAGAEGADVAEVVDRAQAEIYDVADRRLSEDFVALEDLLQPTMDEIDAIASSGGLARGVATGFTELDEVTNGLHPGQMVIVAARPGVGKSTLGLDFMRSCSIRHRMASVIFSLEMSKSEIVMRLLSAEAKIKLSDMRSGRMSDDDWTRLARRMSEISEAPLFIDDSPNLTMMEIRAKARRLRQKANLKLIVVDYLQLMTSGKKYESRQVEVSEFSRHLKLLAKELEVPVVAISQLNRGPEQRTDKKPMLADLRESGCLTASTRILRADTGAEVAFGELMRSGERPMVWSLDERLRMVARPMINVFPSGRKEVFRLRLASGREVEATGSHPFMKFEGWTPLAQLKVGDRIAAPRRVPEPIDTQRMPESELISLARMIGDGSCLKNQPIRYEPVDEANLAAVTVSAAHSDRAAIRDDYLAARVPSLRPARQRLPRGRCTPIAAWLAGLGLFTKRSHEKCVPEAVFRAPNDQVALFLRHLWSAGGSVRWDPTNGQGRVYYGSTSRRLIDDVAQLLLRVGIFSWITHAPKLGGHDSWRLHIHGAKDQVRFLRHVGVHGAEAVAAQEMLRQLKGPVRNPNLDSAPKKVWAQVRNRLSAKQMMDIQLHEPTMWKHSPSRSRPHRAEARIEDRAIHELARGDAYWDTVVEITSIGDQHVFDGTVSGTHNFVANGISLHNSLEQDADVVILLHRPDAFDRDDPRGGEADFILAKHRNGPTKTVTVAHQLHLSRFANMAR

[9] = test system: A-375; test: proliferation inhibition in MITF-low A375 cells – cell-based, cherry-pick samples, set 2, counter-screen for MITF modulator project, dose response (AID 540335); format: functional; settings: Homo sapiens
[10] = test system: HEK293; test: HEK293T cell viability loss, resazurin readout – resazurin fluorescence, cytotoxicity control for NF-kB activator project, SAR follow-up (AID 493251); format: functional, cell-based; settings: Homo sapiens
[11] = test system: HEK293; test: SAR Analysis of small molecule inhibitors of T-cell specific antigen receptor-induced NF-kB activation in a HEK-293T cell line using a luminescence assay - Set 2. [Related pubchem assays (depositor defined):AID435003, AID435012, AID489026]; format: functional, cell-based; settings: Homo sapiens
[12] = test system: Jurkat; test: SAR Analysis of small molecule inhibitors of T-cell specific antigen receptor-induced NF-kB activation in a Jurkat cell line using a luminescence assay - Set 2. [Related pubchem assays (depositor defined):AID435003, AID435012, AID465]; format: functional, cell-based; settings: Homo sapiens
[13] = test system: HEK293; test: SAR Analysis of small molecule inhibitors of B-cell specific antigen receptor-induced NF-kB activation in a HEK-293T cell line using a luminescence assay - Set 2. [Related pubchem assays (depositor defined):AID435022, AID435025, AID489021]; format: functional, cell-based; settings: Homo sapiens
[14] = test system: Jurkat; test: SAR Analysis of small molecule inhibitors of […] specific antigen receptor-induced NF-kB activation in a Jurkat cell line using a luminescence assay - Set 3. [Related pubchem assays (depositor defined):AID435022, AID435025, AID465]; format: functional, cell-based; settings: Homo sapiens
[15] = biological target: T4, Probable nicotinate-nucleotide adenylyltransferase (Staphylococcus aureus (strain N315), UniProt P65502); format: functional, Staphylococcus aureus subsp. aureus N315;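 as to IC50 Mean: confirmatory dose-response retesting of NadD inhibitor hits first found in an ultra-high-throughput screen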
[16] = biological target: T5, Apoptotic protease-activating factor 1 (Homo sapiens, UniProt O14727); test: activation of Apaf-1 mediated apoptosis – fluorescent, uHTS hits, dose response (AID 588554); format: functional
T5 sequence (O14727 whole entry): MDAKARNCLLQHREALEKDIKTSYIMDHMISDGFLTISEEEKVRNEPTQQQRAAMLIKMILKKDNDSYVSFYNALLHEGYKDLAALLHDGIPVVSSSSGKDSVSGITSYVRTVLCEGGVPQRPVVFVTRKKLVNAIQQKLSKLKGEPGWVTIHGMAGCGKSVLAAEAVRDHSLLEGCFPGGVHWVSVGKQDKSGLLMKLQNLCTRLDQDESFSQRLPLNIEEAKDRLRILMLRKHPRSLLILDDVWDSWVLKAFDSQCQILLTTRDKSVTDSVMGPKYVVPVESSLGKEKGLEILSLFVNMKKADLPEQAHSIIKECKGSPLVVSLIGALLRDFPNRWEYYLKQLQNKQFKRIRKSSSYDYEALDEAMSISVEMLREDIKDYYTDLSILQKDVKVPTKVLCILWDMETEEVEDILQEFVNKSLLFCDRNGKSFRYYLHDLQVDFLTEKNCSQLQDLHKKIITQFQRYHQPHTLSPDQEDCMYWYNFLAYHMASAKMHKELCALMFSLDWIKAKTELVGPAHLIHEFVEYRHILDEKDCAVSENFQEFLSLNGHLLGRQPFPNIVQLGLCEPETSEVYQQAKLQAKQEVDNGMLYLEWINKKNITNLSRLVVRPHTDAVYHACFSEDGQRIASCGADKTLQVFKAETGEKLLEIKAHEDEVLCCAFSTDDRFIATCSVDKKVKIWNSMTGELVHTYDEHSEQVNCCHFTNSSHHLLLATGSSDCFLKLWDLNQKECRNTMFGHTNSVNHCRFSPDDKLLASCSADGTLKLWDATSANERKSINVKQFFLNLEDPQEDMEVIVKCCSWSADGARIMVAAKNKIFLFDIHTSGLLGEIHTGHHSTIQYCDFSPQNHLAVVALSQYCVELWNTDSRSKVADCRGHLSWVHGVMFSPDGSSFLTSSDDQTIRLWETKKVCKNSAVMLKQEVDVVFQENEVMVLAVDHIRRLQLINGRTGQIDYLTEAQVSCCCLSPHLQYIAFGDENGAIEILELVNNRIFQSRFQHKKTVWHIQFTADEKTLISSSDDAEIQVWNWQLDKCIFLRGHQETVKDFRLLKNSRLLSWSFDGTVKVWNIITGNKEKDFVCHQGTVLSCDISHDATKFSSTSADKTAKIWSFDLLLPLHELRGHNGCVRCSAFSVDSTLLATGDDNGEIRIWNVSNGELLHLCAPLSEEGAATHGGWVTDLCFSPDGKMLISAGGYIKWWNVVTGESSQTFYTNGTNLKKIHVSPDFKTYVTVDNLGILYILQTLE

[17] = test system: Streptococcus sp. 'group A'; test: Streptococcus pyogenes SK(-)GAS viability under kanamycin – luminescence, BacTiterGlo, confirmation, counter-screen for streptokinase expression inhibitor project, dose response (AID 1900); format: functional, organism-based
[18] = biological target: 72 kDa type IV collagenase (Homo sapiens, UniProt P08253); test: Dose Response validation of uHTS RPN11 inhibitor hits using a MMP-2 Fluorescence assay.; format: functional
[19] = biological target: ORF 73 (Human herpesvirus 8, UniProt O40947); test: KSHV LANA DNA-binding disruption – biochemical, fluorescence polarization, cherry-picked samples, dose response (AID 504725); parameters: species or system Human gammaherpesvirus 8;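 also: fluorescence polarization of a labeled DNA duplex reporting LANA DNA binding; potency is for inhibitors that block LANA binding to the DNA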
[20] = test system: Streptococcus; test: GAS UMAA2166 growth inhibition – luminescence, BacTiterGlo, counter-screen for streptokinase expression inhibitor project, dose response (AID 1915); format: functional, organism-based;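 also: potency for reduction of bacterial viability or growth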
[21] = biological target: 26S proteasome non-ATPase regulatory subunit 14 (Homo sapiens, UniProt O00487); test: inhibition of proteasome subunit RPN11 – biochemical, fluorescence polarization, uHTS hits, confirmation (AID 602368); format: functional
[22] = biological target: T4, Probable nicotinate-nucleotide adenylyltransferase; format: functional, Staphylococcus aureus subsp. aureus N315; settings: read-out: IC50_Mean
[23] = biological target: Prothrombin (Bos taurus, UniProt P00735); test: thrombin protease inhibitors – biochemical, fluorescence polarization, uHTS hits, dose response (AID 602369); format: functional

T4 sequence (P65502 whole entry): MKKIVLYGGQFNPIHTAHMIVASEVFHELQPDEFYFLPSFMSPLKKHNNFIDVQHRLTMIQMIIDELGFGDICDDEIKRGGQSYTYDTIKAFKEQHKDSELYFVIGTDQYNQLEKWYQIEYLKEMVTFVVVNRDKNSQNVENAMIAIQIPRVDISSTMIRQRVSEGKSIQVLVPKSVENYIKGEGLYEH
72 kDa type IV collagenase, sequence (P08253 whole entry): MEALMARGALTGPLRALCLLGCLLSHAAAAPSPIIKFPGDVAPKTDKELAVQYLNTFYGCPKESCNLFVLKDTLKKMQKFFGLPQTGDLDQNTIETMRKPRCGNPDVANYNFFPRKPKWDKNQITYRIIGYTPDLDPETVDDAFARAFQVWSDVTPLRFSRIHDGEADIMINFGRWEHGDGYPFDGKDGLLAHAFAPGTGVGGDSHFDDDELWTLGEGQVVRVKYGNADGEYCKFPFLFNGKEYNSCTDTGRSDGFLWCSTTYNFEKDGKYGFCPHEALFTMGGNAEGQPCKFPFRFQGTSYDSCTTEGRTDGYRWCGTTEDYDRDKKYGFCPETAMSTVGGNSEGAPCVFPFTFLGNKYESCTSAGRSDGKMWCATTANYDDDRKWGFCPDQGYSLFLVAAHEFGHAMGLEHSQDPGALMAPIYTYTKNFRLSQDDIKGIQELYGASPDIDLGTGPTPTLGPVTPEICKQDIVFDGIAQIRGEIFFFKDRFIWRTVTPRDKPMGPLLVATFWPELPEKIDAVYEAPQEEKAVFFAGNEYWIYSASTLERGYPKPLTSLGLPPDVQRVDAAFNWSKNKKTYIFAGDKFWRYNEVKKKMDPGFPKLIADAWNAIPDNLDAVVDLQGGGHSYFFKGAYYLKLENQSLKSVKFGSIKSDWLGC
ORF 73, sequence (O40947 whole entry): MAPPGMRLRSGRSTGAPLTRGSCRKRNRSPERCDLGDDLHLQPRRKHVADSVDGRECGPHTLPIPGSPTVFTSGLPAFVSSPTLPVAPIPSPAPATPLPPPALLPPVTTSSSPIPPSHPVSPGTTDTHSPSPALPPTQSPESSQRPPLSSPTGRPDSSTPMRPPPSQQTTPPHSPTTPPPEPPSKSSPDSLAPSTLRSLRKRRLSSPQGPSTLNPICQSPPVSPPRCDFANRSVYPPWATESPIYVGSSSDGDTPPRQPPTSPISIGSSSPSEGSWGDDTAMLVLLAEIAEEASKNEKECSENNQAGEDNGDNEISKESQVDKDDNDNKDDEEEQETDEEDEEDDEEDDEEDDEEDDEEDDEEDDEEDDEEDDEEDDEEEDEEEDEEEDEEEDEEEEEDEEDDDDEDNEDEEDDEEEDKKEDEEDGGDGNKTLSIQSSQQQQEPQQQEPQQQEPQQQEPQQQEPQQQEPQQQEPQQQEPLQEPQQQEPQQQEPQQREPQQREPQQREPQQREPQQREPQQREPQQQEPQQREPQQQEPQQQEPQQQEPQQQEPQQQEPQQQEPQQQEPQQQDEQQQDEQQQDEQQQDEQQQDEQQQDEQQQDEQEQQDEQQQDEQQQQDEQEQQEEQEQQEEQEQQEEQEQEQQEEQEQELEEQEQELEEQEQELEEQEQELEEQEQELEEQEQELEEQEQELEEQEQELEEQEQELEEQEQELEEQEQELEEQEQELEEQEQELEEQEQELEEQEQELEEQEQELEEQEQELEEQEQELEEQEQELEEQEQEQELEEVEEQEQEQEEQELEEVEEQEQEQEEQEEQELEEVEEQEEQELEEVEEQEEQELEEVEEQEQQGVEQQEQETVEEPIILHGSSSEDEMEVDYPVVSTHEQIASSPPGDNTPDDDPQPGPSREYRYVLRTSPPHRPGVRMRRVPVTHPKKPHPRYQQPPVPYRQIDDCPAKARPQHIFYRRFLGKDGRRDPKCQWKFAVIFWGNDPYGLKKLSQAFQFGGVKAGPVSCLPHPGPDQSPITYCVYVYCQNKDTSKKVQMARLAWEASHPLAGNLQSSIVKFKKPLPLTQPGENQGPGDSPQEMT
26S proteasome non-ATPase regulatory subunit 14, sequence (O00487 whole entry): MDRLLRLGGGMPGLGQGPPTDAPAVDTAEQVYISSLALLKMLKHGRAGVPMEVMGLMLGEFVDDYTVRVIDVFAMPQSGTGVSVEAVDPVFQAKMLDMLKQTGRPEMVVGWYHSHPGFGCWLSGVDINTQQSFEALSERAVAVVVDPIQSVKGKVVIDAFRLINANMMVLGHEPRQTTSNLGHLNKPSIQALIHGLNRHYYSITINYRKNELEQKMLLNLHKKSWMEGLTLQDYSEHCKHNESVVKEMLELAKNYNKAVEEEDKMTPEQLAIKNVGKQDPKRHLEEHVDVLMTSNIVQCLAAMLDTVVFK

Cc1c(C#N)c(NC(=O)CCl)n(Cc2ccc(F)cc2)c1C
EC50 [1]: 12.1 µM (active)
EC50 [2]: 16.7 µM (active)
EC50 [3]: > 150 µM (inconclusive)
EC50 [4]: 1.88 µM (inconclusive)
AC50 [5]: 7.16 µM (active)
AC50 [6]: > 35 µM (active)
EC50 [7]: 4.23 µM (active)
AC50 [8]: 15.2 µM (active)
AC50 [9]: > 35 µM (active)

NS(=O)(=O)c1ccc(NC(=O)c2ccc([N+](=O)[O-])o2)cc1
IC50 [10]: 71.3 µM (inactive)
IC50 [11]: 20.5 µM (inactive)
IC50 [12]: 17.4 µM (active)

CCCCNC(=O)CSCc1nc(-c2ccc(OCC)cc2)oc1C
IC50 [10]: 75.3 µM (inactive)
IC50 [13]: 38.8 µM (inactive)
IC50 [14]: > 80 µM (inactive)

C=CC1=C(C(=O)O)N2C(=O)[C@@H](NC(=O)/C(=N/OCC(=O)O)c3csc(N)n3)[C@H]2SC1
IC50 [15]: 0.5 µM (active)
EC50 [16]: 9.93 µM (active)
EC50 [17]: < 0.06 µM (active)
IC50 [18]: 0.0764 µM (active)
AC50 [19]: 34.8 µM (active)
EC50 [20]: < 0.06 µM (active)
IC50 [21]: 1.04 µM (active)
IC50 [22]: 4.25 µM (active)
IC50 [23]: 68.6 µM (active)
